Data set [1] relates to MRCS cells. Nature of the data set: Scratch assay (cell migration), MRCS. In kind it is cell-based, human. As to conditions: C75 3 μM, TGFβ 10 ng/ml, 24 hours. The protocol:
(§1) Murine fibroblasts (AKR-2B) and human lung fibroblasts (MRCS) were treated for 24 hours with vehicle (0.025% DMSO), TGFβ (10 ng/ml), or both TGFβ (10 ng/ml) and C75 (3 μM). Following 24 hours of treatment, culture plates were manually scratched. TGFβ increased cell migration, but inhibition of FASN activity with C75 suppressed TGFβ induced cell migration (FIG. 4C). Data are representative of 3 separate experiments.

A short description of data set [2]: Serum liver enzymes in bleomycin or saline challenged mice. It is filed as in vivo, C57BL/6 mice. As to conditions: 3.0 mg/kg C75 every 4th day from day 14; blood at days 0, 14, and 28. The protocol:
C57BL/6 mice were intratracheally treated with an equal volume of saline (control) or bleomycin (BLM; 0.075 U). On day 14 all animals began treatment every 4th day with either vehicle (Methocel/saline) or 3.0 mg/kg of C75. Blood samples were obtained at days 0, 14, and 28 from the facial vein of unanesthetized animals and assessed for effect on liver enzymes. Serum levels (U/L, units per liter; g/dL, grams per deciliter) of alkaline phosphatase (ALP), alanine aminotransferase (ALT), and albumin were determined using a Piccolo Xpress Chemistry Analyzer (FIG. 7A). Data are presented as mean+/−SEM of n=5.

Data set [3] can be described thus: Adenovirus-TGFβ model of pulmonary fibrosis. It is filed as in vivo. The settings on record: adenovirus-TGFβ1 mice; 3.0 mg/kg C75 every 4th day from day 21; blood oxygen days 21 and 35, hydroxyproline and qPCR day 39. On the procedure:
Mice were infected with 1×10^8 pfu adenovirus particles expressing control (GFP) or active TGFβ1 by tracheal instillation. On day 21 all animals began treatment every 4th day with either vehicle (Methocel/saline) or 3.0 mg/kg of C75. Peripheral blood oxygen determined on days 21 and 35 (FIG. 10A). Data reflect mean+/−SEM of n=8 and n=15 for adenovirus-GFP and adenovirus-TGFβ, respectively. *P<0.05. Mice were infected with 1×10^8 pfu adenovirus particles expressing control (GFP) or active TGFβ1 by tracheal instillation. On day 21 all animals began treatment every 4th day with either vehicle (Methocel/saline) or 3.0 mg/kg of C75. Mice were sacrificed on day 39 and processed for lung hydroxyproline content (FIG. 10B). Data reflect mean+/−SEM of n=8 and n=15 for adenovirus-GFP and adenovirus-TGFβ, respectively. **P<0.01. Mice were infected with 1×10^8 pfu adenovirus particles expressing control (GFP) or active TGFβ1 by tracheal instillation. On day 21 all animals began treatment every 4th day with either vehicle (Methocel/saline) or 3.0 mg/kg of C75. Mice were sacrificed on day 39 and processed for qPCR expression of connective tissue growth factor (CTGF), alpha smooth muscle actin (α-SMA), and collagen Iα1 (Col Iα1). Data reflect mean+/−SEM of n=8 and n=15 for adenovirus-GFP and adenovirus-TGFβ, respectively. *P<0.05, **P<0.01.

Data set [4] relates to profibrotic TGFβ signaling. Briefly: Western blot of TGFβ induced profibrotic proteins in AKR-2B fibroblasts. It is filed as cell-based, murine. As to conditions: C75 3 μM, TGFβ 10 ng/ml, 24 hours. On the procedure:
(§2) Murine fibroblasts (AKR-2B) and human lung fibroblasts (MRCS) were treated for 24 hours with vehicle (0.025% DMSO) or C75 (FASN inhibitor, 3 μM) in the presence or absence of TGFβ (10 ng/ml). Proteins were obtained from treated and control cells. Protein samples were Western blotted for FASN, Col I, Col IV, FN, CTGF, and pSmad3, and Western blotted for GAPDH as a loading control. TGFβ increased expression of FASN, Col I, Col IV, FN, CTGF, and pSmad3, but inhibition of FASN activity with C75 suppressed TGFβ induced Col I, Col IV, and FN expression (FIG. 4A).
(§3) Murine fibroblasts (AKR-2B) and human lung fibroblasts (MRCS) were transfected with either a nontargeting control siRNA (60 nmol/L) or with FASN-targeting siRNA (60 nmol/L). After 72 hours of cultivation, the transient transfectants were stimulated in the absence or presence of 10 ng/ml TGFβ for 24 hours. Proteins were obtained from treated and control cells. Protein samples were Western blotted for FASN, Col I, Col IV, FN, CTGF, and pSmad3, and Western blotted for GAPDH as a loading control. TGFβ increased expression of FASN, Col I, Col IV, FN, CTGF, and pSmad3, but inhibition of FASN activity with FASN-targeting siRNA suppressed TGFβ induced Col I, Col IV, and FN expression (FIG. 5A).

Data set [5] concerns profibrotic TGFβ signaling. Nature of the data set: Western blot of TGFβ induced profibrotic proteins in MRCS lung fibroblasts. In kind it is cell-based, human. The settings on record: C75 3 μM, TGFβ 10 ng/ml, 24 hours. The protocol:
as §2, §3
In general terms: In western blotting, separated proteins are transferred to a membrane and probed.

The next data set deals with FN, CTGF, and Col I. Nature of the data set: qPCR of profibrotic genes in lung tissue of bleomycin challenged mice. In kind it is in vivo. The settings on record: 0.03, 0.3, or 3 mg/kg C75 intraperitoneal every 4th day from day 14, lung harvested day 28, dose dependent. On the procedure:
Mice were challenged with bleomycin or vehicle (methocel/0.1% DMSO), and every 4th day, beginning 14 days following initial bleomycin insult, were treated by intraperitoneal injection with vehicle, 0.03 mg/kg, 0.3 mg/kg, or 3 mg/kg C75. Murine lung tissue was harvested on day 28 and RNA was obtained. qPCR was performed using primers specific for FN, CTGF, and Col I.
Data reflect mean standard deviation from lungs of n=5 (control, bleomycin, 0.03 mg/kg C75), 7 (0.3 mg/kg C75), or 8 (3 mg/kg C75) animals.
For orientation: In qPCR the cycle at which signal appears reflects the starting amount.

Data set [6] is described as follows: Blood inflammatory cells in bleomycin or saline challenged mice. In kind it is in vivo, C57BL/6 mice. As to conditions: 3.0 mg/kg C75 every 4th day from day 14; blood at days 0, 14, and 28. The protocol: C57BL/6 mice were intratracheally treated with an equal volume of saline (control) or bleomycin (BLM; 0.075 U). On day 14 all animals began treatment every 4th day with either vehicle (Methocel/saline) or 3.0 mg/kg of C75. Blood samples were obtained at days 0, 14, and 28 from the facial vein of unanesthetized animals and assessed for effect on inflammatory cells. Quantification of lymphocytes, monocytes, and neutrophils were measured using a VetScan HM5 Analyzer (FIG. 7B). Data are presented as mean+/−SEM of n=5.

Data set [7] can be described thus: Oxygen saturation (SpO2) in bleomycin challenged mice. As to conditions: 0.03, 0.3, or 3 mg/kg C75 every 4th day from day 14, room air, dose dependent. In kind it is in vivo. On the procedure: Mice were challenged with bleomycin or saline for 25 days, and every 4th day, beginning 14 days following initial bleomycin insult, were treated with vehicle (methocel/0.1% DMSO) or with 0.03 mg/kg, 0.3 mg/kg, or 3 mg/kg C75. Oxygen saturation (SpO2) levels (determined on room air) were measured.
Bleomycin-induced fibrotic conditions caused reduced, time-dependent fluctuations in oxygen saturation, but inhibition of FASN activity with C75 stabilized lung gas exchange in a dose dependent manner (FIG. 7; *p-value<0.05, **p-value<0.01). Error bars reflect standard deviation from n=5 (control, BLM, 0.03 mg/kg C75), 7 (0.3 mg/kg C75), or 8 (3 mg/kg C75) animals.

In data set [8] the test system is AKR-2B cells. Briefly: In vitro cell proliferation (MTT assay and cell counts), AKR-2B. It is filed as cell-based, murine. The settings on record: C75 3 μM, 0.1% FBS or 10% FBS. On the procedure: (§4) Murine fibroblasts (AKR-2B) and human lung fibroblasts (MRCS) were seeded at 2.5×10^3 or 1×10^4 cells/96 well plate, respectively. AKR-2B cells were seeded in medium containing 10% DMEM/FBS, and MRCS cells were seeded in medium containing 10% EMEM/FBS. 24 hours after seeding, the medium was removed and replaced with DMEM or EMEM containing vehicle (0.1% DMSO), or C75 (3 μM) either in 10%, 0.1%, or 0% FBS for 24 hours prior to MTT assay (FIG. 6A). Absorbance was measured at 570 nm. Results represent mean±SEM from three independent experiments
(§5) Murine fibroblasts (AKR-2B) and human lung fibroblasts (MRCS) were seeded at 1.0×10^4 cells/well in 24 well plates for 24 hours. AKR-2B cells were seeded in medium containing 10% DMEM/FBS, and MRCS cells were seeded in medium containing 10% EMEM/FBS. 24 hours after seeding, the medium was removed and replaced with DMEM or EMEM containing vehicle (0.1% DMSO), or C75 (3 μM) either in 10%, 0.1%, or 0% FBS for 24 hours prior to determining cell counts following an additional 24 hour and 48 hour incubation (FIG. 6B). Results represent mean±SEM from three independent experiments.
Background: Tetrazolium dyes change colour on reduction, which living cells bring about.

For data set [9], the system named is AKR-2B cells. Nature of the data set: Scratch assay (cell migration), AKR-2B. It is filed as cell-based, murine. As to conditions: C75 3 μM, TGFβ 10 ng/ml, 24 hours. On the procedure: as §1
Murine (AKR-2B) lung fibroblasts were transfected with either a nontargeting control siRNA (60 nmol/L) or with FASN-targeting siRNA (60 nmol/L). After 72 hours of cultivation, the transient transfectants were stimulated in the absence or presence of 10 ng/ml TGFβ for 24 hours. Following 24 hours of treatment, culture plates were manually scratched. TGFβ increased cell migration, but inhibition of FASN activity with FASN-targeting siRNA suppressed TGFβ induced cell migration (FIG. 5C). Data are representative of 3 separate experiments.

Data set [10] concerns AKR-2B cells. Nature of the data set: Soft agar colony formation assay. It is filed as cell-based, murine. The settings on record: 0, 0.3, 1, 3, or 10 μM C75, TGFβ 10 ng/ml, 7 days growth, dose dependent. The protocol: Murine fibroblasts (AKR-2B) were treated for 24 hours with vehicle (0.025% DMSO) or C75 (FASN inhibitor, 3 μM) in the presence or absence of TGFβ (10 ng/ml), and 0, 0.3, 1, 3, or 10 μM C75. Following 7 days growth, cells were subjected to soft agar colony formation assays. TGFβ increased colony formation, but inhibition of FASN activity with C75 suppressed TGFβ induced colony formation in a dose dependent manner (FIG. 4B; *p-value<0.05, **p-value<0.01). Data reflect the mean+/−standard deviation of triplicate wells from 3 experiments.
Murine fibroblasts (AKR-2B) were transfected with either a nontargeting control siRNA (60 nmol/L) or with FASN-targeting siRNA (60 nmol/L). After 72 hours of cultivation, the transient transfectants were stimulated in the absence or presence of 10 ng/ml TGFβ for 24 hours. Following 7 days growth, cells were subjected to soft agar colony formation assays. TGFβ increased colony formation, but inhibition of FASN activity with FASN-targeting siRNA suppressed TGFβ induced colony formation (FIG. 5B; **p-value<0.01). Data reflect the mean standard deviation of triplicate wells from 3 experiments.

The subject of data set [11] is MRCS cells. Briefly: In vitro cell proliferation (MTT assay and cell counts), MRCS. It is filed as cell-based, human. The settings on record: C75 3 μM, FBS free or 10% FBS. On the procedure:
as §4, §5

Data set [12] relates to FASN. Nature of the data set: Western blot of TGFβ induced FASN expression in MRCS lung fibroblasts. It is filed as cell-based, human. As to conditions: TGFβ 10 ng/ml, Rapamycin 100 nM, Torin 200 nM, 24 hours. On the procedure:
(§6) Murine fibroblasts (AKR-2B) and human lung fibroblasts (MRCS) were transfected with either a nontargeting control siRNA (60 nmol/L) or with Smad2/3-targeting siRNA (60 nmol/L). After 72 hours of cultivation, the transient transfectants were stimulated in the absence or presence of 10 ng/ml TGFβ for 24 hours. Proteins were obtained from treated and control cells. Protein samples were Western blotted for FASN, pSmad2, pSmad3, and connective tissue growth factor (CTGF), and Western blotted for GAPDH as a loading control.
(§7) Murine fibroblasts (AKR-2B) and human lung fibroblasts (MRCS) were stimulated in the absence or presence of TGFβ (10 ng/ml) plus a PI3K inhibitor (LY294002; 10 μM), a MEK inhibitor (U0126; 10 μM), an AKT inhibitor (MK2206; 0.3 μM), a mTORC1 inhibitor (Rapamycin; 100 nM), or a mTORC1,2 inhibitor (Torin; 200 nM). Expression of pErk and pS6K/pS6K was determined at 1 and 6 hours post-stimulation while FASN, pSmad3, and GAPDH assessed at 24 hours. TGFβ induced FASN expression was abrogated in the presence of rapamycin or torin (FIGS. 3C and 3D).

Data set [13] relates to FASN. Briefly: Western blot of TGFβ induced FASN expression in AKR-2B fibroblasts. The settings on record: TGFβ 10 ng/ml, Rapamycin 100 nM, Torin 200 nM, 24 hours. In kind it is cell-based, murine. The protocol: as §6, §7

`C=C1C(=O)OC(CCCCCCCC)C1C(=O)O` (centres unmarked) [C75]: the “TGFβ induced cell migration” value in the data set on MRCS cells [1] and with AKR-2B cells [9] was “suppressed” each time. Besides, the “murine liver enzymes (serum ALP, ALT, albumin)” value in data set [2] is given as “no effect”. Also, the lung function entry in data set [3] was “stabilizes lung function”. Also, the “TGFβ induced Col I, Col IV, and FN expression” value in data set [4] and in data set [5] was “suppressed” each time. Also, the “FN, CTGF, and Col I expression (qPCR, lung tissue)” value with FN, CTGF, and Col I is recorded as “reduced”. Further, the “inflammatory cell recruitment (lymphocytes, monocytes, neutrophils)” value in [6] was “no effect”. The “lung gas exchange (oxygen saturation, SpO2)” value in [7] is “stabilized”. The “in vitro cell proliferation (OD570, cell counts)” value in the data set with AKR-2B cells [8] and in the data set with MRCS cells [11] was “does not inhibit” throughout. In addition, in the data set on AKR-2B cells [10], the “TGFβ induced colony formation” value is “suppressed”.

For the compound Torin, the “TGFβ induced FASN expression” value in the data set on FASN [12] and in the data set with FASN [13] was “abrogated” in each case.

These data come from patent US12280036B2, “Using fatty acid synthase inhibitors to treat fibrosis” (Mayo Foundation for Medical Education and Research, priority 2016, dated 2025).
